The subject of one assay is COLO205 (colon). Nature of the assay: Inhibition of cell proliferation, CellTiter-Glo, COLO205. The format is cell-based. As to conditions: Homo sapiens, COLO 205, 72 h. An outline of the steps:
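Exponentially growing COLO205 cells in medium with 10% FBS were plated below 2000 cells/well at 37 °C, 5% CO2. Untreated wells served as controls.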
(In general: ATP-based viability assays read luminescence as a measure of living cells.)

The target in a further assay is T1, human IR (hIR) (Homo sapiens, UniProt P06213).
T1 construct: containing amino acid residues 979-1382 of human IR; GST (N); rTEV protease site (linker between GST and kinase) (N); made in house; host or cells: Sf9 cells, baculovirus (same process as hIGF1R)
T1 sequence (P06213 979-1382): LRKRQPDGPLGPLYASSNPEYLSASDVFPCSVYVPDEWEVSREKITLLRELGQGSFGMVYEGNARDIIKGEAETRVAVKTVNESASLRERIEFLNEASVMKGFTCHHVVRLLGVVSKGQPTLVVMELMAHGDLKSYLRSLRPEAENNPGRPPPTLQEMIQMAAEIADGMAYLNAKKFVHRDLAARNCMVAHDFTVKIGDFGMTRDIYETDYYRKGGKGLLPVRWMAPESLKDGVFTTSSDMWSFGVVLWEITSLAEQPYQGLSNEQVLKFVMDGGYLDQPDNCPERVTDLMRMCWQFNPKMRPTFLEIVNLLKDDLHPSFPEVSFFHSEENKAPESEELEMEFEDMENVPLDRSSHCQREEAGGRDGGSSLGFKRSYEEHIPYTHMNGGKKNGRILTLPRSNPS
Description: IR TR-FRET assay using peptide as the phosphoacceptor. It is filed as biochemical. The note with it: 10 μM ATP, 0.5 nM activated enzyme; for IC50: read-out: IR pIC50 (converted). On the technique in general: TR-FRET usually uses a lanthanide donor and a delayed reading to cut background.

For another assay, the target named is T2, human IGF1R (hIGF1R) (Homo sapiens, UniProt P08069).
T2 construct: containing amino acid residues 957-1367 of human IGF1R; made in house; host or cells: Sf9 cells, baculovirus
T2 sequence (P08069 957-1367): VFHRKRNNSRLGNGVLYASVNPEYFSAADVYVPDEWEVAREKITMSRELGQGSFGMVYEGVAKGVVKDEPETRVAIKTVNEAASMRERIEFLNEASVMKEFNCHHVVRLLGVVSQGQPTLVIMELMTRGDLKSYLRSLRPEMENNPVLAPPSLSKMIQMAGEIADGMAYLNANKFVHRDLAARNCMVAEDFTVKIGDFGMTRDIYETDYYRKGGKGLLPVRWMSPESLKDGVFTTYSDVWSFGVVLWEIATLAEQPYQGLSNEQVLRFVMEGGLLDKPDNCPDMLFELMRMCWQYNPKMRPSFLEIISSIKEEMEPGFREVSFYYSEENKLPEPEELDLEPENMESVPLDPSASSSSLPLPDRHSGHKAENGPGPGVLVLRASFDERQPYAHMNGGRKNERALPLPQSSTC
Nature of the assay: IGF1R TR-FRET assay using peptide as the phosphoacceptor. It is filed as biochemical. As to conditions: 10 μM ATP, 0.5 nM activated enzyme; for IC50: read-out: IGF-1R pIC50 (converted). On the procedure: A. IR and IGF1 R Time Resolved Fluorescence Resonance Energy Transfer (TR-FRET) Assay Using Peptide as the Phosphoacceptor
Substrate phosphorylation assays are carried out as follows:
The Source of Substrate Peptide
The biotinylated substrate peptide, (sequence-Biotin-aminohexyl-AEEEEY*[…]-NH2) SEQ. ID. 1 is purchased from QCB, Inc. (Hopkinton, Mass.). Purity is determined by HPLC. The calculated molecular mass of the peptide is 2216 dalton. Tyrosine phosphorylation by human IGF1R (hIGF1R) or human IR (hIR) occurs as indicated (Y*) in the peptide sequence described. Solid peptide sample is dissolved to approximately 1 mM in DMSO, aliquoted, and stored at −20° C. until use. True peptide concentration is determined by amino acid analysis.
The Source of Enzyme: • hIGF1R: GST-rTEV-IGF-1R (957-1367) containing amino acid residues 957-1367 of human IGF1R (as annotated by National Center for Biotechnology Information (NCBI) accession number NP_000866) is purified from a baculovirus expression system in Sf9 cells using Glutathione Sepharose 4FF column chromatography followed by Sephadex-200 size exclusion column chromatography. Enzyme purity of approximately 95% is achieved. Samples, in 25 mM Tris-HCl, 250 mM NaCl, 5% glycerol, 1 mM DTT, pH 7.5, are stored at −80° C. until use. • hIR: GST-rTEV-IR(979-1382) containing amino acid residues 979-1382 of human IR (as annotated by NCBI accession number NP_000199) is expressed and purified by the same process as hIGF1R. Enzyme purity of approximately 92% is achieved. Samples, in 25 mM Tris-HCl, 250 mM NaCl, 5% glycerol, 1 mM DTT, pH 7.5, are stored at −80° C. until use.
Activation of hIGF1R and hIR by Autophosphorylation: • hIGF1R: Activation of GST-rTEV-IGF-1R(957-1367) is achieved by a 4 minute incubation of hIGF1R (2.7 μM final) with 2 mM ATP in 50 mM HEPES, 20 mM MgCl2, 0.1 mg/mL BSA, at room temperature. Autophosphorylation is stopped by addition of EDTA (to 100 mM final). Aliquoted samples are flash frozen in liquid nitrogen and stored at −80° C. until use. • hIR: Activation of […] is achieved by a 5 minute incubation of hIR (2.7 μM final) with 2 mM ATP in 100 mM HEPES, 10 mM MgCl2, 0.1 mg/mL BSA, at room temperature. Autophosphorylation is stopped by addition of EDTA (to 100 mM final). Aliquoted samples are flash frozen in liquid nitrogen and stored at −80° C. until use. • Kinase Assay of Purified hIGF1R or hIR:
Assays are performed in 384-well (Greiner, Catalog No. 784076) microtiter plates. Reaction buffer (50 mM HEPES buffer, pH 7.5; 10 mM MgCl2; 3 mM DTT; 1 mM CHAPS; 0.1 mg/mL BSA) for peptide phosphorylation (10 μl volume) contained, in final concentrations, 500 nM biotinylated peptide substrate; 10 μM ATP; and purified, activated hIGF1R or hIR (0.5 nM). Some compounds were initially assayed against IGF1R in buffer without DTT or CHAPS. […] Compounds, titrated in DMSO, are evaluated at eleven concentrations ranging from 50 μM to 0.2 nM. […] No effect on activity relative to controls without DMSO is observed for hIGF1R or IR at these DMSO amounts. Reactions are incubated for 1 hour at room temperature and are stopped by a 5 μl addition of EDTA (to 33 mM). A further addition of 5 μl detection reagents (for final 7 nM Streptavidin-APC (PerkinElmer #CR130-150), 1 nM Europium-labeled anti-phosphotyrosine monoclonal antibody (PerkinElmer #AD0067), added in reaction buffer (without DTT), is required for signal generation. After 30 minutes, signal is read on PerkinElmer Viewlux microplate imager or Wallac Victor fluorometer.
Data were fitted to the curve described by:
y=((Vmax*x)/(K+x)) where • Vmax is the upper asymptote and • K is the IC50.
The results for each tested compound were recorded as pIC50 calculated as follows: […]

The target in assay [1] is T3, human IGF-1R (NIH-3T3 cells over expressing human IGF-1R) (Homo sapiens, UniProt P08069).
T3 construct: expressed in transfected cells; host or cells: NIH-3T3 (mouse fibroblasts)
T3 sequence (P08069 31-1367): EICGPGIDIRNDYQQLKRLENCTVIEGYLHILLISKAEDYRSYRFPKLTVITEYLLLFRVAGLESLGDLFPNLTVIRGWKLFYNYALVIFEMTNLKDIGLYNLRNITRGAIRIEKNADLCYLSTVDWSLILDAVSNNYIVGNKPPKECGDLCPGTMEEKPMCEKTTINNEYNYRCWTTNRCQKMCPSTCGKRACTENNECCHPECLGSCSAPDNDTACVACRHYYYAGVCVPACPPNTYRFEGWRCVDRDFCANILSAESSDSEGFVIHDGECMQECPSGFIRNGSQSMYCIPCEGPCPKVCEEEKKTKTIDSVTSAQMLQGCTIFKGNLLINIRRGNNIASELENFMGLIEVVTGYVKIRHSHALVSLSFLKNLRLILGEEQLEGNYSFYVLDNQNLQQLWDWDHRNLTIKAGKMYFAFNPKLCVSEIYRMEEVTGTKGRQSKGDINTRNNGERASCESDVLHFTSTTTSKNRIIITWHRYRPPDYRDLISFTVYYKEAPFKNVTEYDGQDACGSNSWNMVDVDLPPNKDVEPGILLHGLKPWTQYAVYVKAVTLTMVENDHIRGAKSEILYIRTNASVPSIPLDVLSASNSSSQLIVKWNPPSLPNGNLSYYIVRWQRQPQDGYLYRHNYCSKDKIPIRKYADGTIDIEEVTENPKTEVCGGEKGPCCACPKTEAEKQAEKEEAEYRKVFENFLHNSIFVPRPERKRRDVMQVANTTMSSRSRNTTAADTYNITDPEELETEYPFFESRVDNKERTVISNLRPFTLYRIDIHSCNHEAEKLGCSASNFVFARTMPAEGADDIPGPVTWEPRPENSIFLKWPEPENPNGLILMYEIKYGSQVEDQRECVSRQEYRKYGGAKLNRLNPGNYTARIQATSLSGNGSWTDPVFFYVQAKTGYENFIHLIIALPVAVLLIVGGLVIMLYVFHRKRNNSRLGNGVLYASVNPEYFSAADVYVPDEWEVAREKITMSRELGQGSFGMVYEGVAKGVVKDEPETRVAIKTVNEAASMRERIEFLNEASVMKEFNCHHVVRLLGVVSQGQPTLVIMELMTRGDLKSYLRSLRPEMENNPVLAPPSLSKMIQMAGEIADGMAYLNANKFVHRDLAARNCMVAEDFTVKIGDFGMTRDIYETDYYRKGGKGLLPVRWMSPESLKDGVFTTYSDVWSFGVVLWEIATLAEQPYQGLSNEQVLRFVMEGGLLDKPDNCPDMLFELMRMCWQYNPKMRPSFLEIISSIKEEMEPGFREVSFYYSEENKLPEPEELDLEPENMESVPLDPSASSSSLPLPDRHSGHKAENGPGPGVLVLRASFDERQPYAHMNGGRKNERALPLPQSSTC
Description: IGF-1R cellular autophosphorylation (DELFIA). The note with it: IGF-1 stimulated. The format is cell-based. An outline of the steps:
(§1)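 Read-out: DELFIA on lysates, receptor-specific capture antibody plus europium-labelled anti-phosphotyrosine, reported as % of IGF-1- or insulin-stimulated signal. Transfected NIH-3T3 cells got compound (30 uM–1.5 nM, 2 h) before a 15 min ligand pulse: IGF-1 30 ng/mL for IGF-1R, insulin 3 ug/mL for IR.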

The target of assay [2] is T4, IR (NIH-3T3 cells over expressing human IGF-1R or IR) (Homo sapiens, UniProt P06213).
T4 construct: expressed in transfected cells; host or cells: NIH-3T3 (mouse fibroblasts)
T4 sequence (P06213 28-1382): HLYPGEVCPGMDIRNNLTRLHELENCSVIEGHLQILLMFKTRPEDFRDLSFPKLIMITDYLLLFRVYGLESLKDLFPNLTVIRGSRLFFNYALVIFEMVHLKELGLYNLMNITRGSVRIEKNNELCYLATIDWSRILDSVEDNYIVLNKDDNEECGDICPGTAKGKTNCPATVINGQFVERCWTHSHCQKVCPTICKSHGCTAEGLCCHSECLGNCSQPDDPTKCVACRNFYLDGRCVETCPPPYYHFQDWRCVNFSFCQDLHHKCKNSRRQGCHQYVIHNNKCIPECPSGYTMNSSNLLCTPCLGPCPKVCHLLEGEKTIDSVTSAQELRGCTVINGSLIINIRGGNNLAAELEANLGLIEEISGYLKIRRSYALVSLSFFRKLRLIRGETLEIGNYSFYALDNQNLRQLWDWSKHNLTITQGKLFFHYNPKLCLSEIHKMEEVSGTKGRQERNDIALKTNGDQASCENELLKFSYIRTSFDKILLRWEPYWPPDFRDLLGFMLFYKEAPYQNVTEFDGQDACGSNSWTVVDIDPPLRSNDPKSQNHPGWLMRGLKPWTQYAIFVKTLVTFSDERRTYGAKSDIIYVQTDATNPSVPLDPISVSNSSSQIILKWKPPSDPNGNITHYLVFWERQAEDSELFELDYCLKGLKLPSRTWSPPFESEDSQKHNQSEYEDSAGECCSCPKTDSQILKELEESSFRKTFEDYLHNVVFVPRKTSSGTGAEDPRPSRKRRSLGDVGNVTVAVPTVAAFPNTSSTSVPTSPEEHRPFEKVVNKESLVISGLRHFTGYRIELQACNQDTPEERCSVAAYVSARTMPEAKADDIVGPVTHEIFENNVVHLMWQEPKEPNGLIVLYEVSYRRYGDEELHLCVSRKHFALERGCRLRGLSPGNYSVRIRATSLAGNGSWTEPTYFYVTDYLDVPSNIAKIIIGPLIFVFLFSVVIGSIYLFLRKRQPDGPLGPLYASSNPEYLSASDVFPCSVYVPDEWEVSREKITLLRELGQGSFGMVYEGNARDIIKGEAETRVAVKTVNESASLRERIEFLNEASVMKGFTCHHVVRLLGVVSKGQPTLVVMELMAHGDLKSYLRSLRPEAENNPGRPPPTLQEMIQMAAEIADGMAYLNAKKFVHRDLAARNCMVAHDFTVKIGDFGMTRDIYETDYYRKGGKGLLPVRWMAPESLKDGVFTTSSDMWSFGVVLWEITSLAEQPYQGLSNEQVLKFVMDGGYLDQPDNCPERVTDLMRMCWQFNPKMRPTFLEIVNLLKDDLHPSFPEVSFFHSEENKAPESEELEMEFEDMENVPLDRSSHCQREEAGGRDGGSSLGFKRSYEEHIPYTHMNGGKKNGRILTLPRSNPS
Description: IR cellular autophosphorylation (DELFIA). The format is cell-based. As to conditions: NIH-3T3 cells over expressing IR, insulin stimulated. An outline of the steps:
as §1

Assay [3] deals with NCI-H929 (multiple myeloma). Description: Inhibition of cell proliferation, CellTiter-Glo, NCI-H929. It is filed as cell-based. As to conditions: Homo sapiens, 72 h. An outline of the steps: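 Cells were grown in medium with 10% FBS at 37° C, 5% CO2. Cell number was read as CellTiter-Glo luminescence (cellular ATP), with untreated wells as control.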

Description for human IR (hIR): Reaction buffer (50 mM HEPES buffer, pH 7.5; 10 mM MgCl2; 3 mM DTT; 1 mM CHAPS; 0.1 mg/mL BSA) for peptide phosphorylation (10 μl volume) contained, in final concentrations, 500 nM biotinylated peptide substrate; 10 μM ATP; and purified, activated hIGF1R or hIR (0.5 nM). Some compounds were initially assayed against IGF1R in buffer without DTT or CHAPS. […] Compounds, titrated in DMSO, are evaluated at eleven concentrations ranging from 50 μM to 0.2 nM. […] Reactions are incubated for 1 hour at room temperature and are stopped by a 5 μl addition of EDTA (to 33 mM). A further addition of 5 μl detection reagents (for final 7 nM Streptavidin-APC (PerkinElmer #CR130-150), 1 nM Europium-labeled anti-phosphotyrosine monoclonal antibody (PerkinElmer #AD0067), added in reaction buffer (without DTT), is required for signal generation. After 30 minutes, signal is read on PerkinElmer Viewlux microplate imager or Wallac Victor fluorometer.
The data for compound concentration responses were plotted as % Inhibition, calculated with the data reduction formula 100*(1-[(U1-C2)/(C1-C2)]), versus concentration of compound, where • U is the unknown value, • C1 is the average control value obtained for DMSO only, and
C2 is the average control value obtained for reactions stopped with EDTA at t=0.

Take `CCOc1cc(N2CCC(CCS(C)(=O)=O)CC2)c(CC)cc1Nc1nccc(-c2c(-c3ccc(OCC)c(C(=O)Nc4c(F)cccc4F)c3)nc3ccccn23)n1` [Example 208, N-(2,6-difluorophenyl)-5-(3-{2-[(5-ethyl-2-(ethyloxy)-4-{4-[2-(methylsulfonyl)ethyl]-1-piperidinyl}phenyl)amino]-4-pyrimidinyl}imidazo[1,2-a]pyridin-2-yl)-2-(ethyloxy)benzamide]: the IC50 was less than 250 nM with COLO205 (colon), less than 100 nM in assay [1], less than 100 nM in assay [2] and less than 250 nM in assay [3]. For the same compound, at human IR (hIR), the “IR pIC50” value is reported as “++ (at least one average pIC50 measurement greater than 6 against the kinase tested but no average measurement greater than pIC50 of 7)”. Also, the “IGF-1R pIC50” value on human IGF1R (hIGF1R) is “++ (at least one average pIC50 measurement greater than 6 against the kinase tested but no average measurement greater than pIC50 of 7)”.
As for `CCOc1ccc(-c2nc3ccccn3c2-c2ccnc(Nc3cc(CC)c(N4CCC(CCS(C)(=O)=O)CC4)cc3OC)n2)cc1C(=O)Nc1c(F)cccc1F` [Example 209, N-(2,6-difluorophenyl)-5-(3-{2-[(5-ethyl-2-(methyloxy)-4-{4-[2-(methylsulfonyl)ethyl]-1-piperidinyl}phenyl)amino]-4-pyrimidinyl}imidazo[1,2-a]pyridin-2-yl)-2-(ethyloxy)benzamide], the IC50 in the assay with COLO205 (colon) is less than 250 nM; in assay [1], less than 100 nM; in assay [2] it was less than 100 nM; in assay [3] it was less than 250 nM. Also, the “IGF-1R pIC50” value at human IGF1R (hIGF1R) was “++ (at least one average pIC50 measurement greater than 6 against the kinase tested but no average measurement greater than pIC50 of 7)”.
Take `CCOc1cc(CCN2CCN(C)CC2)ccc1Nc1nccc(-c2c(-c3ccc(OC)c(C(=O)Nc4c(F)cccc4F)c3)nc3ccccn23)n1` [Example 146, N-(2,6-difluorophenyl)-5-{3-[2-({2-(ethyloxy)-4-[2-(4-methyl-1-piperazinyl)ethyl]-phenyl}amino)-4-pyrimidinyl]imidazo[1,2-a]pyridin-2-yl}-2-(methyloxy)benzamide]: the IC50 is 250 to 1000 nM in the assay on COLO205 (colon); less than 100 nM on human IR (hIR); less than 100 nM on human IGF1R (hIGF1R); more than 500 nM in assay [1]; more than 500 nM in assay [2].
For `CCOc1cc(N2CCC(CCS(C)(=O)=O)CC2)c(C)cc1Nc1nccc(-c2c(-c3ccc(OC(C)C)c(C(=O)Nc4c(F)cccc4F)c3)nc3ccccn23)n1` [Example 215], the IC50 with COLO205 (colon) was less than 250 nM; in assay [1], less than 100 nM; in assay [2] it was less than 100 nM; in assay [3], less than 250 nM. The “IR pIC50” value at human IR (hIR) is on record as “++ (at least one average pIC50 measurement greater than 6 against the kinase tested but no average measurement greater than pIC50 of 7)”. On human IGF1R (hIGF1R), the “IGF-1R pIC50” value was “++ (at least one average pIC50 measurement greater than 6 against the kinase tested but no average measurement greater than pIC50 of 7)”.
`CCOc1ccc(-c2nc3ccccn3c2-c2ccnc(Nc3cc(CC)c(N4CCC(N5CCN(S(C)(=O)=O)CC5)CC4)cc3OC)n2)cc1C(=O)Nc1c(F)cccc1F` [Example 206, N-(2,6-difluorophenyl)-5-(3-{2-[(5-ethyl-2-(methyloxy)-4-{4-[4-(methylsulfonyl)-1-piperazinyl]-1-piperidinyl}phenyl)amino]-4-pyrimidinyl}imidazo[1,2-a]pyridin-2-yl)-2-(ethyloxy)benzamide]: the IC50 is less than 250 nM in the assay on COLO205 (colon), less than 100 nM in assay [1], less than 100 nM in assay [2] and less than 250 nM in assay [3]. The “IR pIC50” value at human IR (hIR) is listed as “++ (at least one average pIC50 measurement greater than 6 against the kinase tested but no average measurement greater than pIC50 of 7)”. Besides, at human IGF1R (hIGF1R), the “IGF-1R pIC50” value is recorded as “++ (at least one average pIC50 measurement greater than 6 against the kinase tested but no average measurement greater than pIC50 of 7)”.
Regarding `CCOc1cc(N2CCC(CCS(C)(=O)=O)CC2)c(C)cc1Nc1nccc(-c2c(-c3ccc(OCC)c(C(=O)Nc4c(F)cccc4F)c3)nc3ccccn23)n1` [Example 217, N-(2,6-difluorophenyl)-2-(ethyloxy)-5-(3-{2-[(2-(ethyloxy)-5-methyl-4-{4-[2-(methylsulfonyl)ethyl]-1-piperidinyl}phenyl)amino]-4-pyrimidinyl}imidazo[1,2-a]pyridin-2-yl)benzamide], the IC50 in the assay on COLO205 (colon) was less than 250 nM; in assay [1] it was less than 100 nM; in assay [2] it was less than 100 nM; in assay [3], less than 250 nM. Also, on human IGF1R (hIGF1R), the “IGF-1R pIC50” value was “++ (at least one average pIC50 measurement greater than 6 against the kinase tested but no average measurement greater than pIC50 of 7)”.
As to `CCOc1ccc(-c2nc3ccccn3c2-c2ccnc(Nc3cc(Cl)c(N4CCN(CCS(C)(=O)=O)CC4)cc3OC)n2)cc1C(=O)Nc1c(F)cccc1F` [Example 212], the IC50 is less than 250 nM with COLO205 (colon); less than 100 nM at human IR (hIR); less than 100 nM on human IGF1R (hIGF1R); less than 100 nM in assay [1]; less than 100 nM in assay [2]; less than 250 nM in assay [3].
In the case of `CCOc1cc(CCN2CCN(C)CC2)ccc1Nc1nccc(-c2c(-c3cccc(C(=O)Nc4c(F)cccc4F)c3)nc3ccccn23)n1` [Example 147, N-(2,6-difluorophenyl)-3-{3-[2-({2-(ethyloxy)-4-[2-(4-methyl-1-piperazinyl)ethyl]-phenyl}amino)-4-pyrimidinyl}imidazo[1,2-a]pyridin-2-yl]benzamide], the IC50 with COLO205 (colon) was more than 1000 nM; on human IR (hIR) it was less than 100 nM; at human IGF1R (hIGF1R), less than 100 nM; in assay [1], less than 100 nM; in assay [2] it was less than 100 nM.

The values are drawn from patent US20100216779A1 (GLAXOSMITHKLINE LLC, priority 2007, published 2010).
